# Measured values: patent US11964052B2, “Lipid compounds and lipid nanoparticle compositions” (SUZHOU ABOGEN BIOSCIENCES CO., LTD., priority 2021, dated 2024)
# How the values were obtained:
# Assay type in all cases: physicochemical
# [1] = Apparent pKa of LNP formulations, TNS fluorescence assay; settings: LNP cationic lipid/DSPC/cholesterol/DMG-PEG 50/10/38.5/1.5 mol %, pH 3 to 9
# Method: As reported in literature, the apparent pKa of LNP formulations correlates with the delivery efficiency of LNPs for nucleic acids in vivo. The apparent pKa of each formulation was determined using an assay based on fluorescence of 2-(p-toluidino)-6-napthalene sulfonic acid (TNS). LNP formulations comprising of cationic lipid/DSPC/cholesterol/DMG-PEG (50/10/38.5/1.5 mol %) in PBS were prepared as described above. TNS was prepared as a 300 uM stock solution in distilled water. LNP formulations were diluted to 0.1 mg/ml total lipid in 3 mL of buffered solutions containing 50 mM sodium citrate, 50 mM sodium phosphate, 50 mM sodium borate, and 30 mM sodium chloride where the pH ranged from 3 to 9. An aliquot of the TNS solution was added to give a final concentration of 0.1 mg/ml and following vortex mixing fluorescence intensity was measured at room temperature in a Molecular Devices Spectramax iD3 spectrometer using excitation and mission wavelengths of 325 nm and 435 nm. A sigmoidal best fit analysis was applied to the fluorescence data and the pKa value was measured as the pH giving rise to half-maximal fluorescent intensity.
# [2] = Lipid nanoparticle size and polydispersity by dynamic light scattering (Malvern Zetasizer Nano ZS); settings: LNP of cationic lipid/DSPC/cholesterol/PEG-lipid 50:10:38.5:1.5 with mRNA
# Method: (§1) Briefly, a cationic lipid provided herein, DSPC, cholesterol, and PEG-lipid were solubilized in ethanol at a molar ratio of 50:10:38.5:1.5, and mRNA were diluted in 10 to 50 mM citrate buffer, pH=4. The LNPs were prepared at a total lipid to mRNA weight ratio of approximately 10:1 to 30:1 by mixing the ethanolic lipid solution with the aqueous mRNA solution at a volume ratio of 1:3 using a microfluidic apparatus, total flow rate ranging from 9-30 mL/min. Ethanol were thereby removed and replaced by DPBS using dialysis. Finally, the lipid nanoparticles were filtered through a 0.2 μm sterile filter.
# (§2) Lipid nanoparticle size were determined by dynamic light scattering using a Malvern Zetasizer Nano ZS (Malvern UK) using a 173° backscatter detection mode. The encapsulation efficiency of lipid nanoparticles were determined using a Quant-it Ribogreen RNA quantification assay kit (Thermo Fisher Scientific, UK) according to the manufacturer's instructions.
# [3] = Encapsulation efficiency of lipid nanoparticles, Quant-it Ribogreen RNA quantification assay; settings: LNP with mRNA
# Method: as §1, §2
SMILES,Apparant Pka [1],polydispersity [2],size (nm) [2] [nm],Encapsulation Efficiency [3] [%]
CCCCCCCCCCCCOCC(CN(CCCCCC(=O)OCC(CCCCCC)CCCCCCCC)CCN(CCO)C1CCC1)OCCCCCCCCCCCC (stereo not drawn) [Compound 28],5.905,0.2,54.96,86.9
CCCCCCCCCCCCOCC(CN(CCCCCC(=O)OCC(CCCCCC)CCCCCCCC)CCN(CCO)C1CCCC1)OCCCCCCCCCCCC (stereo not drawn) [Compound 29],5.699,0.110,53.73,80.1
CCCCCCCCCCCCOCC(CN(CCCCCC(=O)OCC(CCCCCC)CCCCCCCC)CCN(CCO)C1CCCCC1)OCCCCCCCCCCCC (stereo not drawn) [Compound 30],5.409,0.107,49.64,92.7
CCCCCCCCCCCCOCC(CN(CCCCCC(=O)OCC(CCCCCC)CCCCCCCC)CCN(CCO)C1CCCCCC1)OCCCCCCCCCCCC (stereo not drawn) [Compound 31],5.704,0.127,51.35,80.1
CCCCCCCCC(CCCCCC)CC(=O)OCC(CN(CCO)C1CCC1)OC(=O)CC(CCCCCC)CCCCCCCC (stereo not drawn) [Compound 32],3.519,0.232,59.1,44.6
CCCCCCCCCCCCOCC(CN(CCCCCC(=O)OCC(CCCCCC)CCCCCCCC)CCN(CCO)C1CCC1)OCCCCCCCC (stereo not drawn) [Compound 33],5.943,0.06,63.54,94.30
CCCCCCCCCCCCOCC(CN(CCCCCC(=O)OCC(CCCCCC)CCCCCCCC)CCN(CCO)C1CC1)OCCCCCCCC (stereo not drawn) [Compound 34],5.482,0.103,58.33,89.60
CCCCCCCCCCCCOCC(CN(CCCCCC(=O)OCC(CCCCCC)CCCCCCCC)CCN(CCO)C1CCCC1)OCCCCCCCC (stereo not drawn) [Compound 35],5.940,0.1,56.71,96.80
CCCCCCCCCCCCOCC(CN(CCCCCC(=O)OCC(CCCCCC)CCCCCCCC)CCN(CCO)C1CCCCC1)OCCCCCCCC (stereo not drawn) [Compound 36],5.774,0.078,59.91,94.20
CCCCCCCCCCCCOCC(CN(CCCCCC(=O)OCC(CCCCCC)CCCCCCCC)CCN(CCO)C1CCCCCC1)OCCCCCCCC (stereo not drawn) [Compound 37],5.726,0.156,51.77,92.70
CCCCCCCCCCCCOCC(CN(C)CCN(CCO)C1CCC1)OCCCCCC (stereo not drawn) [Compound 38],6.971,0.194,97.62,76.2
CCCCCCCCCCCCOCC(CN(C)CCN(CCO)C1CCC1)OCCCCCCCCCCCC (stereo not drawn) [Compound 39],6.712,0.162,111.2,94.7
CCCCCCCCCCCCOCC(CN(C)CCO)OC(=O)CCCCCCCCCCC (stereo not drawn) [Compound 41],5.746,0.136,82.81,83.5
CCCCCCCCCCCCOCC(CN(C)CCN(CCO)C1CCC1)OC(=O)CCCCCCCCCCC (stereo not drawn) [Compound 42],6.283,0.155,82.81,94.4
CCCCCCCCCOC(=O)CCOCC(CN(C)CCN(CCO)C1CCC1)OCCC(=O)OCCCCCCCCC (stereo not drawn) [Compound 43],7.227,0.362,138.6,78.4
CCCCCCCCCCCCOCC(CN(C)CCN(CCO)C1CCC1)OC(=O)CCCCC (stereo not drawn) [Compound 44],6.65,0.178,112.8,85.2
CCCCCCCCCCCCOCC(CN(C)CCN(CCO)C1CCCCC1)OCCCCCC (stereo not drawn) [Compound 45],7.466,0.289,68.33,86.8

SMILES,Apparant Pka [1],polydispersity [2],size (nm) [2] [nm],Encapsulation Efficiency [3] [%]
CCCCCCCCCCCCCCCCCCOCC(CN(CCCCCC(=O)OCCCCCCCCCC)CCN(CCO)C1CCC1)OCCCCCC (stereo not drawn) [Compound 46],6.047,0.039,103.3,95.9
CCCCCCCCCCCCCCOC(COCCCCCCCCCCCC)CN(CCCCCC(=O)OCCCCCCCCCC)CCN(CCO)C1CCC1 (stereo not drawn) [Compound 47],6.120,0.082,82.89,91.3
CCCCCCCCCCCCOCC(CN(CCCCCC(=O)OCCCCCCCCCC)CCN(CCO)C1CCC1)OCCCCCCCC (stereo not drawn) [Compound 48],6.263,0.113,79.39,91.7
CCCCCCCCCCCCOCC(CN(CCCCCC(=O)OCCCCCCCCCC)CCN(CCO)C1CCC1)OCCCCCC (stereo not drawn) [Compound 49],6.221,0.031,99.66,83.7
CCCCCCCCC(CCCCCCCC)CNC(=O)CCOCC(CN(C)CCO)OCCC(=O)NCC(CCCCCCCC)CCCCCCCC (stereo not drawn) [Compound 50],8.298,0.099,58.14,90.4
CCCCCCCCC(CCCCCCCC)CNC(=O)CCOCC(CN(C)CCN(CCO)C1CCC1)OCCC(=O)NCC(CCCCCCCC)CCCCCCCC (stereo not drawn) [Compound 51],7.727,0.057,75.11,94.7
CCCCCCCCCCCCCCCCOCC(CN(CCCCCC(=O)OCCCCCCCCCC)CCN(CCO)C1CCC1)OCCCCCC (stereo not drawn) [Compound 53],6.069,0.014,90.06,89.79
CCCCCCCCC(CCCCCCCC)COC(=O)CCOCC(CN(C)CCN(CCO)C1CCC1)OCCC(=O)OCC(CCCCCCCC)CCCCCCCC (stereo not drawn) [Compound 55],6.851,0.034,75.43,89.5
CCCCCCCCC(CCCCCCCC)CC(=O)OCC(CCCCN(CCO)C1CCC1)COC(=O)CC(CCCCCCCC)CCCCCCCC [Compound 56],6.403,0.107,53.32,91.0
CCCCCCCCC(CCCCCCCC)CNC(=O)CCOCC(CN(C)CCN(CCO)C1CCCC1)OCCC(=O)NCC(CCCCCCCC)CCCCCCCC (stereo not drawn) [Compound 57],7.73,0.055,70.05,97.0
CCCCCCCCC(CCCCCCCC)CC(=O)OCC(CCCCN(CCO)C1CCC1)COC(=O)CCCCC (stereo not drawn) [Compound 60],6.985,0.068,73.31,92.6
CCCCCCCCC(CCCCCCCC)CNC(=O)CCOC(COCCC(=O)OCC(CCCCCCCC)CCCCCCCC)CN(C)CCN(CCO)C1CCC1 (stereo not drawn) [Compound 61],7.219,0.055,70.83,96.2
CCCCCCCCCCCC(=O)OCC(CN(CCCCCC(=O)OCC(CCCCCC)CCCCCC)CCN1CCC(O)C1)OC(=O)CCCCC (stereo not drawn) [Compound 62],7.062,0.075,58.44,94.1
CCCCCCC(CCCCCC)COC(=O)CCCCCN(CCN1CCC(O)C1)CC(COC(=O)CCCCC)OC(=O)CCCCC (stereo not drawn) [Compound 63],6.928,0.076,150.2,95.9
CCCCCCCCC(CCCCCCCC)CC(=O)OCC(CCCCN(CCN(C)CCO)C1CCC1)COC(=O)CC(CCCCCCCC)CCCCCCCC [Compound 65],6.428,0.082,73.61,97.0
CCCCCCCCC(CCCCCCCC)CC(=O)OCC(CCCCN(C)CCN(CCO)C1CCC1)COC(=O)CC(CCCCCCCC)CCCCCCCC [Compound 66],6.749,0.044,72.85,96.6
